Measurements published in patent publication US20250236599A1, “LIPID NANOPARTICLES FOR OLIGONUCLEOTIDE DELIVERY” (ZIPHIUS NV, priority 2021, published 2025).

Key:
[1] = LNP particle size, polydispersity index and charge by Zeta Sizer; type: physicochemical; details: LNP lipid:DOPE:Cholesterol:DMG-PEG 35:20:43.5:1.5, firefly luciferase saRNA; for Polydispersity Index (PI) / Z-average (nm): N/P approx. 40/1
Experimental: Cationic lipids, DOPE, Cholesterol and DMG-PEG lipid were solubilized in ethanol or DMSO at a molar ratio of 35:20:43.5:1.5 and a concentration of 100:25:20:25 μg/μL for C12-200 or 170:25:20:25 μg/μL for the comparator lipids. Lipid nanoparticles (LNP) were prepared by targeting an N/P ratio of approximately 40/1 with saRNA. Briefly, the firefly luciferase saRNA of approximately 9659 nucleotides was diluted to 0.5 mg/mL in 5 mM citrate buffer, pH 4.5. Microfluidic mixer (Ignite from Precision Nanosystems, California, USA) was used to mix the lipid solution with the saRNA aqueous solution at a ratio of about 1:3 (vol/vol) with total flow rates above 10 ml/min. The ethanol was then removed, and the external buffer replaced with 10 mM TRIS-HCL, PH 7.4, by dialysis. Finally, the lipid nanoparticles were filtered through a 0.2 μm pore sterile filter. Lipid nanoparticle particle size was 50-150 nm diameter and polydispersity index (PI) of 0.1-0.4 as determined by Zeta Sizer (Malvern Panalytical, UK). The charge of the formulation was also measured by Zeta Sizer and ranged between 20 to −20 mV.

[2] = system: expression of the luciferase saRNA; assay: In vivo bioluminescent imaging after intramuscular injection of LNP-formulated luciferase saRNA; details: 1 μg LNP-formulated luciferase saRNA intramuscularly, female SWISS mice
Experimental: (§1) Female SWISS mice (6 weeks old) were purchased from Janvier Laboratories (Paris, France) and kept in individually ventilated cages with access to food and water ad libitum. Mice were anesthetized with isoflurane (Zoetis, Louvain-La-Neuve, Belgium) (5% for induction and 2% for maintenance) and intramuscularly injected with a total of 1 μg in 100 μL Tris-HCL (50 μL per leg) LNP-formulated luciferase saRNA (for each group n=7). The expression of the luciferase induced bioluminescence was measured via non-invasive In vivo bioluminescent imaging (In vivo Imaging System (IVIS) Lumina III, Perkin Elmer, Waltham, Massachusetts, USA), 10 minutes after subcutaneous injection of […] of D-luciferin (GoldBio, Saint Louis, Missouri, USA, #LUCK-1G) were measured in day 0 (before injection), day 1, day 3, day 5, day 7, day 10, day 15 and day 20.

[3] = Weight evolution of the animals following administration of LNPs; type: in vivo; details: female SWISS mice
Experimental: as §1

[4] = saRNA loading / encapsulation efficiency, Quant-IT RiboGreen assay; type: physicochemical; details: LNP lipid:DOPE:Cholesterol:DMG-PEG 35:20:43.5:1.5, firefly luciferase saRNA
Experimental: The saRNA loading in LNP formulations was quantified using a Quant-IT RiboGreen assay (Thermo Fisher Scientific, Waltham, Massachusetts, USA) as previously described. 14 samples were diluted tenfold in 1x Tris HCL-EDTA (TE) buffer (10 mM Tris-HCL, 1 mM EDTA, pH 7.5) with or without 2% (v/v) Triton X-100 (Sigma-Aldrich, Saint Louis, Missouri, USA). Standard solutions were also prepared in 1xTE with or without 2% (v/v) Triton X-100 to account for any variation in fluorescence. The assay was performed according to the manufacturer's protocol. Samples were loaded on a black 96-well plate and analysed for fluorescence on a microplate reader (Tecan Infinite® 200 PRO) at an excitation of 485 nm and emission at 528 nm. Encapsulation efficiency was calculated between 80-100%.

[5] = Day 1, 1 μg LNP-formulated saRNA intramuscularly
[6] = Day 3, 1 μg LNP-formulated saRNA intramuscularly
[7] = Day 5, 1 μg LNP-formulated saRNA intramuscularly
[8] = Day 7, 1 μg LNP-formulated saRNA intramuscularly
[9] = Day 10, 1 μg LNP-formulated saRNA intramuscularly
[10] = Day 15, 1 μg LNP-formulated saRNA intramuscularly
[11] = Day 20, 1 μg LNP-formulated saRNA intramuscularly

Structure (SMILES) | Zetapotential (mV) [1] | Polydispersity Index (PI) [1] | Z-average (nm) [1] | Bioluminescence expression of LNPs ([2]; Day 1) | Bioluminescence expression of LNPs ([2]; Day 3) | Bioluminescence expression of LNPs ([2]; Day 5) | Bioluminescence expression of LNPs ([2]; Day 7) | Bioluminescence expression of LNPs ([2]; Day 10) | Bioluminescence expression of LNPs ([2]; Day 15) | Bioluminescence expression of LNPs ([2]; Day 20) | Weight ([3]; Day 0) | Weight [3, 5] | Weight [3, 6] | Weight [3, 7] | Weight [3, 8] | Weight [3, 9] | Weight [3, 10] | Weight [3, 11] | Encapsulation (%) [4]
CCCCCCCCC(CCCCCC)C(=O)OCCCCCCN(CCCCCCOC(=O)C(CCCCCC)CCCCCCCC)CCN1CCN(CCN(CCCCCCOC(=O)C(CCCCCC)CCCCCCCC)CCCCCCOC(=O)C(CCCCCC)CCCCCCCC)CC1 (stereo not shown) [Compound 9-37, ((piperazine-1,4-diylbis(ethane-2,1-diyl))bis(azanetriyl)) tetrakis(hexane-6,1-diyl) tetrakis(2-hexyldecanoate)] | −9.93 mV | 0.27 | 89.43 nm | 1.07E+07 | 2.06E+08 | 4.17E+08 | 3.54E+08 | 2.11E+06 | 7.50E+04 | 2.65E+04 | 28.21 g | 26.73 g | 28.81 g | 28.84 g | 28.84 g | 29.36 g | 30.63 g | 31.61 g | 92.32%
CCCCCCCCC(CCCCCC)C(=O)OCCCCN(CCCCOC(=O)C(CCCCCC)CCCCCCCC)CCN1CCN(CCN(CCCCOC(=O)C(CCCCCC)CCCCCCCC)CCCCOC(=O)C(CCCCCC)CCCCCCCC)CC1 (stereo not shown) [Compound 9-36, ((piperazine-1,4-diylbis(ethane-2,1-diyl))bis(azanetriyl))tetrakis(butane-4,1-diyl) tetrakis(2-hexyldecanoate)] | −10.52 mV | 0.20 | 105.70 nm | 4.28E+06 | 1.92E+08 | 8.44E+08 | 6.10E+08 | 5.56E+06 | 2.57E+05 | 1.16E+05 | 29.09 g | 29.49 g | 31.49 g | 30.09 g | 30.36 g | 30.56 g | 31.33 g | 32.30 g | 96.25%
CCCCCCCCC(CCCCCC)C(=O)OCCN(CCOC(=O)C(CCCCCC)CCCCCCCC)CCN(CCOC(=O)C(CCCCCC)CCCCCCCC)CCN1CCN(CCN(CCOC(=O)C(CCCCCC)CCCCCCCC)CCOC(=O)C(CCCCCC)CCCCCCCC)CC1 (stereo not shown) [Compound 9-29, ((2-(4-(2-((2-(bis(2-((2-hexyldecanoyl)oxy)ethyl)amino)ethyl) (2-((2-hexyldecanoyl)oxy)ethyl)amino)ethyl)piperazin-1-yl)ethyl)azanediyl)bis(ethane-2,1-diyl) bis(2-hexyldecanoate)] | −10.51 mV | 0.15 | 102.48 nm | 4.13E+05 | 1.68E+07 | 4.25E+07 | 6.13E+07 | 3.92E+07 | 1.44E+06 | 5.43E+05 | 29.59 g | 29.53 g | 29.74 g | 30.04 g | 30.93 g | 30.63 g | 30.89 g | 32.69 g | 94.31%
CCCCCCC(CCCC)C(=O)OCCN(CCOC(=O)C(CCCC)CCCCCC)CCN1CCN(CCN(CCOC(=O)C(CCCC)CCCCCC)CCOC(=O)C(CCCC)CCCCCC)CC1 (stereo not shown) [Compound 9-32, ((piperazine-1,4-diylbis(ethane-2,1-diyl))bis(azanetriyl))tetrakis(ethane-2,1-diyl) tetrakis(2-butyloctanoate)] | −16.38 mV | 0.17 | 54.53 nm | 5.13E+06 | 1.31E+08 | 2.76E+08 | 3.71E+08 | 1.08E+07 | 6.35E+05 | 1.29E+05 | 27.00 g | 26.94 g | 28.46 g | 28.26 g | 28.11 g | 27.91 g | 29.69 g | 30.94 g | 93.33%
CCCCCCCCCCCCCCOC(=O)CCN(CCC(=O)OCCCCCCCCCCCCCC)CCN1CCN(CCN(CCC(=O)OCCCCCCCCCCCCCC)CCC(=O)OCCCCCCCCCCCCCC)CC1 [Comparator 1 (C1), reference compound] | 9.07 mV | 0.16 | 70.96 nm |  |  |  |  |  |  |  | 26.56 g | 25.99 g | 27.21 g | 27.59 g | 27.09 g | 27.17 g | 29.43 g | 30.11 g | 99.03%
CCCCCCCCCCC(O)CN(CCN1CCN(CCN(CC(O)CCCCCCCCCC)CC(O)CCCCCCCCCC)CC1)CCN(CC(O)CCCCCCCCCC)CC(O)CCCCCCCCCC (stereo not shown) [Compound C12-200, 1,1′-((2-(4-(2-((2-(bis (2-hydroxydodecyl)amino)ethyl) (2-hydroxydodecyl)amino)ethyl)piperazin-1-yl)ethyl)azanediyl) bis(dodecan-2-ol), reference compound] | 9.59 mV | 0.19 | 94.03 nm |  |  |  |  |  |  |  | 28.61 g | 27.17 g | 28.62 g | 28.98 g | 28.97 g | 29.23 g | 30.16 g | 31.23 g | 97.46%
CCCCCCC(CCCC)C(=O)NCCCCCCN(CCCCCCNC(=O)C(CCCC)CCCCCC)CCN(CCCCCCNC(=O)C(CCCC)CCCCCC)CCN1CCN(CCN(CCCCCCNC(=O)C(CCCC)CCCCCC)CCCCCCNC(=O)C(CCCC)CCCCCC)CC1 (stereo not shown) [Compound 9-40, N,N'-(((2-(4-(2-((2-(bis(6-(2-butyloctanamido)hexyl)amino)ethyl) (6-(2-butyloctanamido)hexyl)amino)ethyl)piperazin-1-yl)ethyl)azanediyl)bis(hexane-6,1-diyl))bis(2-butyloctanamide)] |  |  |  | 6.07E+07 | 6.79E+08 | 1.14E+09 | 8.88E+08 | 2.00E+07 | 1.32E+06 | 2.64E+05 | 30.11 g | 29.54 g | 29.41 g | 29.19 g | 30.31 g | 30.51 g | 31.09 g | 32.37 g | 
